Source: patent US9763445B2, “Safened herbicidal compositions comprising a pyridine carboxylic acid herbicide” (Dow AgroSciences, LLC, priority 2014, dated 2017)

Assays:
pigweed (AMARE) = test: Postemergence greenhouse trial, % visual injury on pigweed; format: in vivo, Amaranthus retroflexus; settings: AMARE
Procedure, shortened: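 Injury was scored visually (0 = none, 100 = complete kill) 20–22 d after track-sprayer application at 187 L/ha, compared with solvent-sprayed controls. Test plants at the 2–3 true leaf stage; herbicide (g ae/ha) plus cloquintocet-mexyl safener (g ai/ha) in crop-oil-containing spray; expected mixture response by Colby.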

nutsedge (CYPES) = test: Postemergence greenhouse trial, % visual injury on nutsedge; format: in vivo, Cyperus esculentus; settings: CYPES
Description: (§1) Seeds of the desired test plant species were planted in Sun Gro MetroMix® 306 planting mixture, which typically has a pH of 6.0 to 6.8 and an organic matter content of about 30 percent, in plastic pots with a surface area of 103.2 square centimeters (cm^2). When required to ensure good germination and healthy plants, a fungicide treatment and/or other chemical or physical treatment was applied. The plants were grown for 7-36 days (d) in a greenhouse with an approximate 14-hour (h) photoperiod which was maintained at about 23° C. during the day and 22° C. during the night. Nutrients and water were added on a regular basis and supplemental lighting was provided with overhead metal halide 1000-Watt lamps as necessary. The plants were employed for testing when they reached the second or third true leaf stage.
(§2) Weighed amounts of technical material were dissolved in a volume of 97:3 volume per volume (v/v) acetone/dimethyl sulfoxide (DMSO) to stock solutions. […] The concentrated stock solutions were diluted with an aqueous mixture of 1.5% v/v of Agri-dex crop oil concentrate to provide the appropriate application rates. Compound requirements are based upon a 12 milliliter (mL) application volume at a rate of 187 liters per hectare (L/ha). Stocks solutions of the safeners were prepared following the same procedure. Spray solutions of the safeners and experimental compound mixtures were prepared by adding the stock solutions to the appropriate amount of dilution solution to form a 12 mL spray solution in two-way combinations. Formulated compounds were applied to the plant material with an overhead Mandel track sprayer equipped with 8002E nozzles calibrated to deliver 187 L/ha over an application area of 0.503 square meters (m^2) at a spray height of 18 inches (43 centimeters (cm)) above average plant canopy. Control plants were sprayed in the same manner with the solvent blank. All herbicide application (component a) rates are in g ae/ha and all safener (component b) rates are in g ai/ha.
(§3) The treated plants and control plants were placed in a greenhouse as described above and watered by sub-irrigation to prevent wash-off of the test compounds. After 20-22 d, the condition of the test plants as compared with that of the control plants was determined visually and scored on a scale of 0 to 100 percent where 0 corresponds to no injury and 100 corresponds to complete kill. The condition of the test plants was compared with that of the control plants as determined visually and scored on a scale of 0 to 100 percent, where 0 corresponds to no injury and 100 corresponds to complete kill. Colby's equation was used to determine the herbicidal effects expected from the mixtures.
(§4) The safener cloquintocet-mexyl was combined with compound 1, compound 2, compound 4, compound 5, and compound 6, and applied to corn/maize (ZEAMX) and spring wheat (TRZAS) and the phytotoxicity of the herbicidal compositions was measured. In addition, the efficacy of the herbicidal composition on velvetleaf (ABUTH, Abutilon theophrasti), pigweed (AMARE, Amaranthus retroflexus), winter rape (BRSNW, Brassica napus), lambsquarters (CHEAL, Chenopodium album), thistle (CIRAR, Cirsium arvense), nutsedge (CYPES, Cyperus esculentus), poinsettia (EPHHL, Euphorbia heterophylla), wild buckwheat (POLCO, Polygonum convolvulus), giant foxtail (SETFA, Setaria faberi), and chickweed (STEME, Stellaria media) was evaluated. […]
The safener cloquintocet-acid and a number of agriculturally acceptable esters and salts (-mexyl, -dimethylammonium salt and -triethylammonium salt) were combined in varying ratios with compound 1 and applied to spring wheat (TRZAS), winter wheat (TRZAW), and spring barley (HORVS), and the phytotoxicity of the herbicidal compositions was measured. […]

common sunflower (HELAN) = test: Postemergence greenhouse trial, % visual injury on common sunflower; format: in vivo, Helianthus annuus
Description: as §1, §2, §3
(§5) The safener cloquintocet-acid and a number of agriculturally acceptable esters and salts (-mexyl, -dimethylammonium salt and -triethylammonium salt) were combined in varying ratios with compound 1 and applied to spring wheat (TRZAS), winter wheat (TRZAW), and spring barley (HORVS), and the phytotoxicity of the herbicidal compositions was measured. In addition, the efficacy of the herbicidal composition on pigweed (AMARE, Amaranthus retroflexus), nutsedge (CYPES, Cyperus esculentus), common sunflower (HELAN, Helianthus annuus), and common sorghum (SORVU, Sorghum vulgare).

winter wheat (TRZAW) = test: Postemergence greenhouse trial, % visual injury on winter wheat; format: in vivo, Triticum aestivum; settings: TRZAW
Description: as §1, §2, §3
The safener cloquintocet-mexyl was combined with compound 1, compound 2, compound 3, compound 7, compound 8, compound 9, compound 10, compound 11, compound 12, compound 13, compound 14, compound 15, compound 16, compound 17, compound 18, compound 19, and compound 20, and applied to spring wheat (TRZAS), winter wheat (TRZAW), and spring barley (HORVS) and the phytotoxicity of the herbicidal compositions was measured. […]

corn/maize (ZEAMX) = test: Postemergence greenhouse trial, % visual injury on corn/maize; format: in vivo, Zea mays; settings: ZEAMX
Description: as §1, §2, §3, §4

common sorghum (SORVU) = test: Postemergence greenhouse trial, % visual injury on common sorghum; format: in vivo, Sorghum vulgare; settings: SORVU
Description: as §1, §2
as §3, with “mixtures. […]” for “mixtures.”
as §5

Measured: % visual injury, observed (Ob)

CNC.O=C(O)COc1ccc(Cl)c2cccnc12 [CQC-DMA]
0%: pigweed (AMARE); safener alone 2.5 g/ha | pigweed (AMARE); safener alone 5 g/ha | pigweed (AMARE); safener alone 10 g/ha | pigweed (AMARE); safener alone 20 g/ha | nutsedge (CYPES); safener alone 2.5 g/ha | nutsedge (CYPES); safener alone 5 g/ha | nutsedge (CYPES); safener alone 10 g/ha | nutsedge (CYPES); safener alone 20 g/ha | common sunflower (HELAN); safener alone 2.5 g/ha | common sunflower (HELAN); safener alone 5 g/ha | common sunflower (HELAN); safener alone 10 g/ha | common sunflower (HELAN); safener alone 20 g/ha | winter wheat (TRZAW); safener alone 2.5 g/ha | winter wheat (TRZAW); safener alone 5 g/ha | winter wheat (TRZAW); safener alone 10 g/ha | winter wheat (TRZAW); safener alone 20 g/ha | corn/maize (ZEAMX); safener alone 2.5 g/ha | corn/maize (ZEAMX); safener alone 5 g/ha | corn/maize (ZEAMX); safener alone 10 g/ha | corn/maize (ZEAMX); safener alone 20 g/ha | common sorghum (SORVU); safener alone 2.5 g/ha | common sorghum (SORVU); safener alone 5 g/ha | common sorghum (SORVU); safener alone 10 g/ha | common sorghum (SORVU); safener alone 20 g/ha

CCN(CC)CC.O=C(O)COc1ccc(Cl)c2cccnc12 [CQC-TEA]
0%: pigweed (AMARE); safener alone 2.5 g/ha | pigweed (AMARE); safener alone 5 g/ha | pigweed (AMARE); safener alone 10 g/ha | pigweed (AMARE); safener alone 20 g/ha | nutsedge (CYPES); safener alone 2.5 g/ha | nutsedge (CYPES); safener alone 5 g/ha | nutsedge (CYPES); safener alone 10 g/ha | nutsedge (CYPES); safener alone 20 g/ha | common sunflower (HELAN); safener alone 2.5 g/ha | common sunflower (HELAN); safener alone 5 g/ha | common sunflower (HELAN); safener alone 10 g/ha | common sunflower (HELAN); safener alone 20 g/ha | winter wheat (TRZAW); safener alone 2.5 g/ha | winter wheat (TRZAW); safener alone 5 g/ha | winter wheat (TRZAW); safener alone 10 g/ha | winter wheat (TRZAW); safener alone 20 g/ha | corn/maize (ZEAMX); safener alone 2.5 g/ha | corn/maize (ZEAMX); safener alone 5 g/ha | corn/maize (ZEAMX); safener alone 10 g/ha | corn/maize (ZEAMX); safener alone 20 g/ha | common sorghum (SORVU); safener alone 2.5 g/ha | common sorghum (SORVU); safener alone 5 g/ha | common sorghum (SORVU); safener alone 10 g/ha | common sorghum (SORVU); safener alone 20 g/ha
